# PubChem BioAssay (NCI)
#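 Values below derive from 48-hour exposures of cells grown in 96-well plates, with endpoints linearly interpolated between the two concentrations bracketing the appropriate inhibition level. Abbreviation: GI50, concentration required for 50% inhibition of growth. TGI marks complete inhibition of growth.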
# Key:
# Experiment in all cases: NCI-60 cell line screen, 48 h
# SF-539 CNS = tested on: SF-539 CNS
# MCF7 breast = tested on: MCF7 breast
# UO-31 renal = tested on: UO-31 renal
# HOP-92 NSCLC = tested on: HOP-92 NSCLC
# OVCAR-3 ovarian = tested on: OVCAR-3 ovarian
# M14 melanoma = tested on: M14 melanoma
# HCT-116 colon = tested on: HCT-116 colon
# SK-MEL-2 melanoma = tested on: SK-MEL-2 melanoma
# PC-3 prostate = tested on: PC-3 prostate
# HT29 colon = tested on: HT29 colon
Structure (SMILES),TGI (SF-539 CNS) [µM],TGI (MCF7 breast) [µM],TGI (UO-31 renal) [µM],TGI (HOP-92 NSCLC) [µM],TGI (OVCAR-3 ovarian) [µM],TGI (M14 melanoma) [µM],TGI (HCT-116 colon) [µM],TGI (SK-MEL-2 melanoma) [µM],TGI (PC-3 prostate) [µM],TGI (HT29 colon) [µM],GI50 (SF-539 CNS) [µM],GI50 (MCF7 breast) [µM],GI50 (HOP-92 NSCLC) [µM],GI50 (M14 melanoma) [µM],GI50 (HCT-116 colon) [µM],GI50 (SK-MEL-2 melanoma) [µM]
C[C@H]1C[C@H]2[C@@H]3C(C)(C)O[C@]4(O)C(=O)[C@]5(O)[C@@H](C)CC[C@H]1[C@]25C(=O)[C@]34C,> 100,> 100,> 100,62.7,68.1,> 100,> 100,84.3,> 100,70.3,–,–,–,–,–,–
c1ccc2c(c1)CCc1c-2n(CCN2CCOCC2)c2ccccc12,> 100,> 100,> 100,38.1,> 100,> 100,> 100,25.8,> 100,25.9,–,–,–,–,–,–
CC(=O)Oc1c2oc3ccc(Cl)cc3c(=O)c2c(O)c2ccsc12,> 100,> 100,> 100,> 100,> 100,> 100,> 100,> 100,> 100,> 100,–,–,–,–,–,–
O=c1[nH]nc(-c2ccccc2)n1/N=C/c1cccnc1,> 100,> 100,> 100,> 100,> 100,> 100,> 100,–,> 100,> 100,–,–,–,–,–,–
COc1c(O)cc(O)c2c(=O)cc(-c3ccccc3)oc12,> 100,> 100,6.04,> 100,72.5,> 100,78.4,> 100,> 100,> 100,–,–,–,–,–,–
OC(CCNCc1ccccc1)c1ccc2ccccc2c1 (stereo unspecified),31.9,54.3,32.3,–,29.5,> 100,47.1,38.9,47.4,61.7,–,–,–,–,–,–
CCOC(=O)c1c(N2CCCC2)ncn(Cc2ccccc2)c1=S,> 100,–,> 100,> 100,> 100,> 100,> 100,> 100,> 100,> 100,–,–,–,–,–,–
O=c1cc(N2CCN(c3cc(=O)n4ccccc4n3)CC2)oc2ccccc12,> 100,> 100,> 70.9,> 100,> 100,> 100,> 100,> 100,> 100,> 100,–,–,–,–,–,–
Cc1c2c(n(CCc3ccc(Cl)cc3)c1C)NC(c1ccccc1)C(C#N)S2(=O)=O (stereo unspecified),> 100,> 60.1,> 100,> 100,> 100,> 100,> 100,> 68.9,> 100,> 65.9,–,–,–,–,–,–
O=c1oc2ccccc2cc1-c1cn2cc(Cl)ccc2n1,22.2,2.12,6.79,36.4,2.51,15.2,14.7,24.9,16.4,> 59.8,–,–,–,–,–,–
COC(=O)c1c(OC(C)=O)ccc2c1c1c(n2C)C(=O)c2ccccc2C1=O,47,> 100,> 100,9.58,63,> 100,> 100,96.1,88.1,> 100,–,–,–,–,–,–
COC(=O)C(CSSC[C@H](N/C(C)=C/C(C)=O)C(=O)OC)N/C(C)=C/C(C)=O (stereo partly specified),> 100,88.6,> 100,> 100,88.9,> 100,> 100,> 100,> 100,> 100,–,–,–,–,–,–
Cc1c(NC(=O)CSC(=S)N2CCN(Cc3ccccc3)CC2)c(=O)n(-c2ccccc2)n1C,> 100,> 100,> 100,–,> 100,> 100,> 100,> 100,> 100,> 100,–,–,–,–,–,–
CCOP(=O)(OCC)C1CC(n2cc(C)c(=O)[nH]c2=O)OC1CO (stereo unspecified),> 100,> 100,> 100,> 100,> 100,> 100,> 100,> 100,> 100,> 100,–,–,–,–,–,–
CCOc1cc(C2CC(c3ccc(NS(=O)(=O)c4cc([N+](=O)[O-])ccc4C)cc3)=NN2c2ccc([N+](=O)[O-])cc2[N+](=O)[O-])ccc1O (stereo unspecified),25.5,42.1,39.8,29.3,29,31.6,26.1,44.3,64.7,> 100,–,–,–,–,–,–
O=C1C(=O)c2ccccc2C(O)=C1CCCc1ccc(Oc2ccccc2)cc1,28,–,32.6,49.5,24.9,24.5,–,83.4,–,75.2,–,–,–,–,–,–
CC1(C)CC(C)(C)C1=NNC(N)=O,> 100,> 100,> 100,> 100,> 100,> 100,> 100,> 100,> 100,> 100,–,–,–,–,–,–
COc1ccc(C(=O)/C=C/c2c(Cl)c3c(c(OC)c2Cl)OCC(=O)N3)cc1,4.85,> 100,–,8.88,–,5.12,2.87,5.94,–,–,2.21,2.32,2.44,2.03,1.43,2.19
CC1CC/C(=C\c2ccc(Cl)cc2)C2OC(N)=C(C#N)C(c3ccc(Cl)cc3)=C12 (stereo unspecified),28,29.8,24.9,–,27.5,39,27.4,27.2,28.4,20.7,–,–,–,–,–,–
COc1cc(C(C)c2cc3c(cc2OCCO)OCO3)cc(OC)c1OC (stereo unspecified),4.81,–,> 100,–,–,> 100,> 100,> 100,–,> 100,–,–,–,–,–,–
Nc1ccccc1CC(O)C(=O)O (stereo unspecified),> 100,> 100,–,> 100,> 100,> 100,> 100,–,> 100,> 100,–,–,–,–,–,–
CCOC(=O)Cc1cc(OC)c(OC)cc1/C(Cl)=C(\C=O)c1ccc(OC)c(OC)c1,–,–,85.3,10.3,28.1,32.1,29,62.9,–,29.2,–,–,–,–,–,–
O=C(Cn1c(C(=O)/C=C/c2cccs2)nc2ccccc21)c1ccc(Cl)cc1,> 100,48.4,69.6,93,57.3,40.7,39.5,20.8,–,56.9,–,–,–,–,–,–
CC1(C)[C@H]2CC[C@]1(C)[C@H](OC(=O)NNC(=O)O[C@@H]1C[C@@H]3CC[C@@]1(C)C3(C)C)C2,29.9,26.4,29.2,33.6,25.6,35.6,34.5,32.5,–,20.9,–,–,–,–,–,–

Structure (SMILES),TGI (SF-539 CNS) [µM],TGI (MCF7 breast) [µM],TGI (UO-31 renal) [µM],TGI (HOP-92 NSCLC) [µM],TGI (OVCAR-3 ovarian) [µM],TGI (M14 melanoma) [µM],TGI (HCT-116 colon) [µM],TGI (SK-MEL-2 melanoma) [µM],TGI (PC-3 prostate) [µM],TGI (HT29 colon) [µM],GI50 (SF-539 CNS) [µM],GI50 (MCF7 breast) [µM],GI50 (HOP-92 NSCLC) [µM],GI50 (M14 melanoma) [µM],GI50 (HCT-116 colon) [µM],GI50 (SK-MEL-2 melanoma) [µM]
c1cn(C23C4C5C6C4C2C6C53)cn1 (stereo unspecified),> 100,> 100,–,–,–,> 100,> 100,> 100,> 100,> 100,–,–,–,–,–,–
Cc1nc2c(sc(=S)n2-c2ccccc2)c(=O)[nH]1,> 100,–,> 100,> 100,> 100,–,> 100,> 100,–,> 100,–,–,–,–,–,–
COc1ccc(C2N(NC(=O)c3ccncc3)C(=O)CS2(=O)=O)cc1F (stereo unspecified),–,–,–,> 100,–,> 100,> 100,> 100,–,> 100,–,–,–,–,–,–
COc1ccc(-c2cc(-c3ccc(Nc4ccnc5cc(Cl)ccc45)cc3)[nH]c(=O)c2C#N)c2ccccc12,–,–,15.2,30.8,5.34,4.93,–,> 100,> 100,–,–,–,–,–,–,–
COc1ccccc1Cc1nc(-c2ccccc2)nn(C2OC(COC(C)=O)C(OC(C)=O)C(OC(C)=O)C2OC(C)=O)c1=S (stereo unspecified),33.6,33.9,> 86,24.4,> 85.3,–,> 45.9,41.3,–,> 100,–,–,–,–,–,–
Oc1c([Si](c2ccccc2)(c2ccccc2)c2ccccc2)cc2ccccc2c1-c1c(O)c([Si](c2ccccc2)(c2ccccc2)c2ccccc2)cc2ccccc12,> 100,> 100,> 100,> 100,–,> 100,–,> 100,> 100,> 100,–,–,–,–,–,–
COC1OC2COC1(OC)C1OC(C)(C)OC21 (stereo unspecified),–,> 100,> 100,–,> 100,> 100,> 100,> 100,> 100,> 100,–,–,–,–,–,–
COc1cc2c(cc1OC)C(Cl)C(c1ccc(Cl)c(Cl)c1)=C2Cl (stereo unspecified),22.2,–,24.8,15.1,15.2,50.1,–,21.3,–,12.2,–,–,–,–,–,–
O=C(Nc1ccccc1)N(CCCCN(Cc1ccccc1)C(=O)Nc1ccccc1)Cc1ccccc1,–,> 100,> 100,> 100,> 100,> 100,> 100,> 100,> 100,> 100,–,–,–,–,–,–
NCCCN(CCCN)CCN(CCN(CCCN)CCCN)CCN(CCCN)CCCN,–,> 100,> 100,> 100,> 100,> 100,> 100,> 100,> 100,> 100,–,–,–,–,–,–
CC(=O)Nc1ccc(OC2=CCN(C)CC2)cc1,–,> 100,> 100,–,> 100,> 100,> 100,> 100,> 100,> 100,–,–,–,–,–,–
O=C(O)c1ccn(-c2cccc(-n3ccc(C(=O)O)n3)n2)n1,> 100,> 100,> 100,–,> 100,> 100,> 100,> 100,> 100,> 100,–,–,–,–,–,–
CC1(c2ccc[n+](Cc3ccccc3)c2)OCCO1,> 100,–,> 100,–,> 100,> 100,> 100,> 100,–,> 100,–,–,–,–,–,–
CCCC(=O)NC(Nc1ccc(S(=O)(=O)Nc2nc(C)cc(C)n2)cc1)(C(F)(F)F)C(F)(F)F,> 100,–,> 100,> 100,> 100,> 100,> 100,> 100,> 100,> 100,–,–,–,–,–,–
CCOC(=O)C(NC(=O)CC)(Nc1cc(C)on1)C(F)(F)F (stereo unspecified),> 100,–,> 100,–,–,> 100,> 100,> 100,> 100,> 100,–,–,–,–,–,–
Cc1cn(Cc2cnnn2CC2OC(n3cc(C)c(=O)[nH]c3=O)CC2O)c(=O)[nH]c1=O (stereo unspecified),> 100,> 100,> 100,> 100,> 100,> 100,> 100,> 100,> 100,–,–,–,–,–,–,–
O=c1ccn(CC2(CO)CC(Cc3ccccc3)C2)c(=O)[nH]1 (stereo unspecified),> 100,> 100,> 100,–,> 100,–,> 100,> 100,> 100,> 100,–,–,–,–,–,–
COc1cc2cc[n+]3c(C)c4cc(OC)c(OC)cc4c([O-])c3c2cc1OC,> 100,–,> 100,> 100,24.7,> 100,> 100,> 100,–,> 100,–,–,–,–,–,–
CCOC(=O)c1cc2c3c(c(C(C)=O)c(O)c2[nH]1)N(CC(C)CC)CC3 (stereo unspecified),> 100,> 100,> 100,> 100,–,–,> 100,> 100,> 100,> 100,–,–,–,–,–,–
CN(C)c1nc2oc(-c3ccccc3)c(-c3ccccc3)c2c2nnnn12,> 100,> 100,> 100,> 100,–,> 100,> 100,–,–,> 100,–,–,–,–,–,–
NNC(=O)Cn1c2ccc(Br)cc2c2nc3ccccc3nc21,> 100,> 100,> 100,–,> 100,> 100,–,> 100,> 100,> 100,–,–,–,–,–,–
CCN(CC)c1ccc2cc(C(=O)Nc3cccc4ccccc34)c(=N)oc2c1,> 100,> 100,> 100,> 100,–,> 100,> 100,> 100,> 100,> 100,–,–,–,–,–,–
C/C(Nc1ccc(F)cc1)=C1/CCOC1=O,> 100,–,> 100,> 100,> 100,–,> 100,–,> 100,> 100,–,–,–,–,–,–
